Test results as given in patent US7045146B2, “Templating of solid particles by polymer multilayers” (Max-Planck-Gesellschaft zur Forderung der Wissenschaften …, priority 2000, dated 2006).

Tests used:
Assay type in all cases: physicochemical
[1] = Microelectrophoresis: zeta-potential of coated organic microcrystals
Procedure: The layer-by-layer assembly of polyelectrolytes onto FDA or PYR microcrystals was carried out as follows: 50 mg of finely milled core particles (FDA or PYR) were first thoroughly mixed with 12 mL of 0.2–0.4 wt % of the dispersing agent (ionic surfactant, lipid or charged polymer). Crystalline fluorescein diacetate or pyrene can be milled to fine particles using e.g. a mortar and pestle. However, also advanced ball milling procedures can be used.
The crystals were suspended by their immediate sonication for 5 min. The suspension was allowed to stand for 30 min, thus allowing the larger crystals to sediment, or gently centrifuged. The turbid white supernatant was then extracted, centrifuged and washed several times, and finally resuspended in water.
The resulting microcrystal particles were then layer-by-layer coated with PSS and PAH.^18 When positively charged surfactants or DPPC were used as the first layer, 1 mL of PSS solution (5 mg mL^−1, containing 0.5 M NaCl) was added first. PAH solution (1 mL of 5 mg mL^−1, containing 0.5 M NaCl) was added first when PSS or SDS were adsorbed onto the microcrystals. After an adsorption time of 15 min for PAH or PSS adsorption, the suspension was centrifuged at 3000 g for 5 min. The supernatant was then removed and three cycles of water washing and redispersing were applied to remove the excess unadsorbed polyelectrolyte in solution. Subsequent polyelectrolyte layers, bearing an opposite charge to that already adsorbed on the particle, were deposited in identical fashion to produce multilayer-coated microcrystals. In some cases, the fluorescently labeled polyelectrolyte, PAH-FITC, was applied (as a 2 mg mL^−1 solution containing 0.5 M NaCl) to form a fluorescent layer on the microcrystal surface.
The microelectrophoretic mobility of coated organic microcrystals was measured with a malvern Zetasizer 4 by taking the average of 5 measurements at the stationary level. The mobilities (μ) were converted to the electrophoretic potentials (ζ) using the Smoluchowski relation ζ=μη/ε, where η and ε are the viscosity and permittivity of the solution, respectively.^25 All measurements were performed on microcrystals re-dispersed in air-equilibrated pure water (pH ˜5.6).

[2] = Release experiments: removal of the microcrystal core by ethanol, fluorescence of supernatant; conditions: control without polyelectrolyte multilayer
Procedure: Direct proof that a polymer multilayer cage encapsulated the microcrystals was obtained by removing the templated core. The release behaviour of the pyrene and fluoresceine diacetate molecules, from dissolution of the core templates, through the polymer capsule wall can be investigated by using fluorescence spectroscopy. Following centrifugation of the coated microcrystal suspensions that were exposed to ethanol, the supernatant was assessed for either pyrene or fluoresceine at regular time intervals.
12 mL of solvent (ethanol or ethanol/water mixtures) were dispensed into 15 mL tubes. 0.1 mL of the coated microcrystal suspension of Example 3 was then quickly added to each tube and after defined times (2, 5, 10 min etc.) the suspension was centrifuged at 3000 g for 5 min. A portion of the supernatant was removed and tested for the presence of PYR of FDA by fluorescence. For PYR, the fluorescence emission intensity of the supernatant was measured directly by using an excitation wavelength (λex) of 350 nm and monitoring the emission (λem) at 373 nm. FDA was first hydrolyzed into fluorescein either by treatment with esterase or dilute base prior to fluorescence measurement (λex=492 nm, λem=513 nm). As control experiments, the release characteristics of uncoated particles was also studied as outlined above.

Solubility in water = assay: Solubility in water
[3] = SDS-dispersed crystals, layer No. 2, coating PAH
[4] = SDS-dispersed crystals, layer No. 3, coating PSS
[5] = SDS-dispersed crystals, layer No. 4, coating PAH
[6] = SDS-dispersed crystals, layer No. 5, coating PSS
[7] = SDS-dispersed crystals, layer No. 6, coating PAH-FTTC
[8] = crystals, layer No. 1, coating SDS detergent, pure water pH ~5.6

ζ-potential ([1]; SDS dispersed crystals (FIG. 2a))	ζ-potential ([1]; microcrystals dispersed with DPPC (FIG. 2b))	ζ-potential ([1]; microcrystals exposed to PSS (FIG. 2b))	solubility in water (Solubility in water)	SMILES	Zeta-potential [1, 3]	Zeta-potential [1, 4]	Zeta-potential [1, 5]	Zeta-potential [1, 6]	Zeta-potential [1, 7]	ζ-potential ([1]; crystals exposed to DDDAB (FIG. 2a))	Zeta-potential [1, 8]	time for removal of core upon addition of ethanol ([2]; DDDAB-dispersed (surfactant-coated) microcrystals)	time for removal of core upon addition of ethanol ([2]; PSS-dispersed (PSS-coated) microcrystals)
				c1cc2ccc3cccc4ccc(c1)c2c34 [Pyrene]	+59 mV	−46.5 mV	+54.3 mV	−37.2 mV	+47.3 mV	+50 mV	−68.5 mV	≤ 30 min	≤ 30 min
−50 mV	+20 mV	−40 mV	very low solubility in water	CC(=O)Oc1ccc2c(c1)Oc1cc(OC(C)=O)ccc1C21OC(=O)c2ccccc21 [Fluorescein diacetate, fluorescein diacetate]	+42.9 mV	−37.7 mV	+51.5 mV	−42.2 mV	+48.2 mV		-85 mV		
